Experiments:
[1] = magnetic relaxation rates (MRI contrast effect); format: physicochemical; conditions: magnetic relaxation rate; field strength not stated for Table 1
Description: In order to examine the MRI contrast effects of the compounds (Gd-suc, Gd-glu) and commercially available MRI contrast agents according to Examples of the present invention, the magnetic relaxation rates and lipophilicity were analyzed, and the results are shown in Table 1 below.
The magnetic relaxation rate (mM^−ls^−1) is a parameter indicating contrast efficiency per unit concentration, and in the case of a T1 contrast agent, the r2/r1 ratio is known to have a value of 0.5 to 1.5.

[2] = system: Balb/C mice; test: in vivo MRI contrast effect (abdominal T1 weighted images); conditions: 0.1 mmol/kg, 4.7 T, FIG. 14
Description: The liver-specific T1 contrast effect of the compounds (Gd-suc, Gd-glu) according to embodiments of the present invention and Primovist, a commercially available liver contrast agent, was evaluated in small animals (Balb/C mice, male, 5 w, 25 g, 0.1 mmol/kg) and confirmed through abdominal T1 weighted images (Bruker, 4.7 T), and the results are shown in FIGS. 12 to 15.

[3] = system: AML12 cell line; test: in vitro cell-viability test (CCK method); format: cell-based; conditions: AML12 normal hepatocytes, 24 hours; FIG. 16
Description: In order to confirm the presence or absence of cytotoxicity in normal hepatocytes, Gd-suc (i.e., a compound according to an embodiment of the present invention) and Primovist and Multihance (i.e., commercially available liver contrast agents) were treated on the AML12 cell line at various concentrations, and cell viability after 24 hours was analyzed by a known CCK method, and the results are shown in FIG. 16.

For `O=C([O-])CN1CCN(CC(=O)[O-])CCN([C@H](CO)[C@H](O)CO)CCN(CC(=O)[O-])CC1.[Gd+3]` (racemic) [Gadovist], the r1 [1] was 4.12 ± 0.028 mM^−ls^−1 and the r2 [1] was 4.60 ± 0.025 mM^−ls^−1.
In the case of `CNC[C@H](O)[C@@H](O)[C@H](O)[C@H](O)CO.O=C([O-])CN1CCN(CC(=O)[O-])CCN(CC(=O)O)CCN(CC(=O)[O-])CC1.[Gd+3]` [Dotarem, Gd-DOTA], the r1 [1] is reported as 4.19 ± 0.014 mM^−ls^−1 and the r2 [1] is reported as 4.75 ± 0.016 mM^−ls^−1.
With `CCOc1ccc(CN2CCN(CC(=O)[O-])CCN(C(CCC(=O)[O-])C(=O)[O-])CCN(CC(=O)[O-])CC2)cc1.[Gd+3]` (stereo not shown) [Gd-glu] the r1 [1] was 8.41 ± 0.084 mM^−ls^−1, the r2 [1] was 9.92 ± 0.081 mM^−ls^−1 and the “contrast enhancing effect in the gall bladder” value [2] was “exhibited a contrast enhancing effect in the gall bladder”.
For `CNC[C@H](O)[C@@H](O)[C@H](O)[C@H](O)CO.CNC[C@H](O)[C@@H](O)[C@H](O)[C@H](O)CO.O=C([O-])CN(CCN(CC(=O)[O-])CC(=O)O)CCN(CC(=O)[O-])CC(=O)O.[Gd+3]` [Magnevist], the r1 [1] was 3.57 ± 0.007 mM^−ls^−1 and the r2 [1] was 4.95 ± 0.18 mM^−ls^−1.
In the case of `CNC[C@H](O)[C@@H](O)[C@H](O)[C@H](O)CO.CNC[C@H](O)[C@@H](O)[C@H](O)[C@H](O)CO.O=C([O-])CN(CCN(CC(=O)[O-])CC(=O)O)CCN(CC(=O)O)C(COCc1ccccc1)C(=O)[O-].[Gd+3]` (stereo not shown) [Multihance], the r1 [1] is reported as 5.09 ± 0.015 mM^−ls^−1, the r2 [1] is reported as 6.79 ± 0.38 mM^−ls^−1 and the cytotoxicity [3] is reported as “significant cytotoxicity”.
In the case of `CNC(=O)CN(CCN(CCN(CC(=O)[O-])CC(=O)NC)CC(=O)[O-])CC(=O)[O-].[Gd+3]` [Omniscan], the r1 [1] is reported as 3.58 ± 0.014 mM^−ls^−1 and the r2 [1] is reported as 4.46 ± 0.024 mM^−ls^−1.
For `CCOc1ccc(CC(CN(CCN(CC(=O)[O-])CC(=O)[O-])CC(=O)[O-])N(CC(=O)[O-])CC(=O)[O-])cc1.[Gd+3].[Na+].[Na+]` (stereo not shown) [Primovist], the r1 [1] was 6.51 ± 0.040 mM^−ls^−1, the r2 [1] was 7.31 ± 0.42 mM^−ls^−1 and the cytotoxicity [3] was “significant cytotoxicity”.
`CC(O)CN1CCN(CC(=O)[O-])CCN(CC(=O)[O-])CCN(CC(=O)[O-])CC1.[Gd+3]` (stereo not shown) [Prohance] gave a r1 [1] of 3.58 ± 0.017 mM^−ls^−1 and a r2 [1] of 4.58 ± 0.071 mM^−ls^−1.

Source: patent publication US12589169B2, “Compound and MRI contrast agent containing same” (KYUNGPOOK NATIONAL UNIVERSITY INDUSTRY-ACADEMIC COOPERATION …, priority 2020, dated 2026)
